According to the RepoRT retention time repository:

Experiment: Agilent ZORBAX 300 SB-C18, 150 × 1 mm, 3.5 µm; A: water + 0.01% heptafluorobutyric acid; B: acetonitrile + 0.01% heptafluorobutyric acid; gradient (min/%B) 0/0 100/90
Details: stereoisomer not certain
Work on `c1ccc(-n2nnnc2-n2ccnc2)cc1` yielded an LC retention time of 9.59 min. Work on `CCCCCNC=O` yielded an LC retention time of 8.68 min. Work on `CC(C)(C)NCCNC(C)(C)C` yielded an LC retention time of 7.46 min. Compound `c1ccc2c3c([nH]c2c1)CCCCC3` has an LC retention time of 16.6 min. With `C=CCN1CCNCC1` the LC retention time was 7.39 min. For `Cc1ccc(C(=O)C=Cc2sccc2C)cc1`, the LC retention time was 17.4 min. `C#CCNC` showed an LC retention time of 3.51 min. Compound `CCCCN(CCCC)C(=O)c1ccc(OC(C)=O)cc1` has an LC retention time of 15.3 min. In the case of `CNC1C(OC2C(OC3C(O)C(O)C(N=C(N)N)C(O)C3N=C(N)N)OC(C)C2(O)C=O)OC(CO)C(O)C1O` (centres undefined), the LC retention time is reported as 7.82 min. Work on `O=C(C[n+]1ccccc1)C1CC1` yielded an LC retention time of 6.91 min. In the case of `c1ccc2c(c1)CCCN2`, the LC retention time is reported as 7.61 min. `CCCCCCn1c2ccccc2c2cc(C(C)=O)ccc21` showed an LC retention time of 20 min. Compound `COc1cc(C(=O)Nc2ccc(OCC(N)=O)cc2)cc(OC)c1OC` has an LC retention time of 9.54 min. In the case of `S=C(NC1CCCCC1)NC1CCCCC1`, the LC retention time is reported as 14.9 min. With `Cc1nn[nH]n1` the LC retention time was 2.16 min. Compound `c1ccc(-c2nc(-c3cccnc3)[nH]c2-c2ccccc2)cc1` has an LC retention time of 11 min. With `CNC1CCCCC1NC` (centres undefined) the LC retention time was 7.14 min. Work on `CCOc1ccc(C=CC(=O)c2ccc(C)cc2)cc1` yielded an LC retention time of 17.8 min. In the case of `O=C(O)CCNc1n[nH]c(=O)[nH]c1=O`, the LC retention time is reported as 5.51 min. Compound `CC(CC(=O)Nc1ccc(Nc2ccccc2)cc1)=NNC(=O)Cc1ccccc1` has an LC retention time of 13.1 min. `COc1ccc(C2N(c3ccccc3)CCN2c2ccccc2)cc1` gave an LC retention time of 18.6 min. `CCCCCCCCCC(=O)NCCCCC(=O)O` gave an LC retention time of 13.5 min. With `CCNC(=S)NCCc1c[nH]c2ccccc12` the LC retention time was 11.2 min. `COc1ccc(C=CC(C)=O)cc1` showed an LC retention time of 12 min. `Nc1c2c(nc3ccccc13)N(C1CCCCC1)CC2` showed an LC retention time of 10.9 min. Compound `CN(C)c1ccccn1` has an LC retention time of 6.81 min. `COc1ccc2occ(C(=O)c3ccccc3C)c(=O)c2c1` gave an LC retention time of 14.2 min. In the case of `CC(C)c1ccc(C=NNC(N)=S)cc1`, the LC retention time is reported as 12.8 min. Work on `O=C(NN=Cc1cccc(O)c1)c1cc2ccccc2cc1O` yielded an LC retention time of 12.2 min. With `COc1ccc2c(=O)cc(-c3ccccc3)oc2c1OC` the LC retention time was 13.7 min. For `NCc1ccc2[nH]c(=O)[nH]c2c1`, the LC retention time was 6.29 min. With `CC(=O)Nc1c2ccccc2nc2ccccc12` the LC retention time was 7.89 min. With `Cc1ccc(CNC(C)(C)C)s1` the LC retention time was 8.46 min. `Cc1cc(C)cc(-c2nnc(-c3ccc(-c4ccccc4)cc3)o2)c1` gave an LC retention time of 20.5 min. Work on `Cc1ccc(C=CC(=O)c2ccccc2O)cc1` yielded an LC retention time of 16.1 min. In the case of `Nc1nc(=O)n2c(n1)oc1ccccc12`, the LC retention time is reported as 7.8 min. Compound `C#CC(C)(CC)NC(=O)C(=Cc1ccccc1)NC(=O)c1ccccc1` (centres undefined) has an LC retention time of 13.5 min. Compound `CCCC(=O)Nc1ccc(N)cc1` has an LC retention time of 7.75 min. `CC=CC=CC(=O)Nc1ccc(C=CC(=O)c2ccccc2)cc1` gave an LC retention time of 15.7 min. With `c1nc2c(ccc3[nH]cnc32)[nH]1` the LC retention time was 6.84 min. Compound `CC(C)(C=O)CN1CCCC1` has an LC retention time of 6.76 min. In the case of `Cc1cc(C)nc(NC(N)=NCCC(C)C)n1`, the LC retention time is reported as 10.3 min. `CCN(CC)CCCN` showed an LC retention time of 6.92 min. Compound `NCC(=O)CCC(=O)O` has an LC retention time of 3.25 min. With `Nc1cccc2cc[nH]c12` the LC retention time was 8.08 min. Compound `CCCCCCCCCCn1c(CCC)nc2ccccc21` has an LC retention time of 15.6 min. `CNCCCCCCN(C)CCCCCCNC` gave an LC retention time of 7.6 min. In the case of `NCCn1cnc2ccccc2c1=O`, the LC retention time is reported as 7.46 min. In the case of `C[N+](C)(C)c1cnc(=O)[nH]c1`, the LC retention time is reported as 2.5 min. With `Nc1ccccc1C(=O)NN=Cc1cccc2ccccc12` the LC retention time was 13.3 min. With `Nc1cc(N)cc(C(=O)O)c1` the LC retention time was 4.34 min. In the case of `CC(C)(C)NCC(O)COc1cccc2c1CCC(=O)N2` (centres undefined), the LC retention time is reported as 8.4 min. For `CCN(CCCCOC(=O)c1ccc(OC)c(OC)c1)C(C)Cc1ccc(OC)cc1` (centres undefined), the LC retention time was 11.9 min. For `NCCCCCCCCCCN`, the LC retention time was 7.57 min. With `COc1ccc(NC(=O)c2ccc3c(c2)NC(=O)CO3)cc1OC` the LC retention time was 9.62 min. For `CCN(CC)CC`, the LC retention time was 7.12 min. Compound `NC1=NC(=Nc2ccc3c(c2)OCCO3)c2ccccc21` has an LC retention time of 9.45 min. Work on `C1CCC(OCCNCCOC2CCCCC2)CC1` yielded an LC retention time of 12 min. With `Cc1n[nH]c(=O)nc1N=NCc1c[nH]c2ccccc12` the LC retention time was 10 min. `COc1cc(C)c(NC(C)=O)c(C)c1` showed an LC retention time of 8.85 min. `CN1C(=O)CC(CN)c2ccccc21` (centres undefined) showed an LC retention time of 7.58 min. `NC(=O)C(N)c1ccccc1` (centres undefined) gave an LC retention time of 6.56 min. Compound `CN(C)c1nc(N(C)C)nc(N2CCCCC2)n1` has an LC retention time of 11.2 min. `Cc1c(C(=O)Nc2ccccn2)c(C(C)N=Nc2ccccc2)cc(=O)n1-c1ccccn1` (centres undefined) gave an LC retention time of 11.7 min. Work on `NC1CCCC1` yielded an LC retention time of 6.51 min. `O=Cc1c(-c2ccccc2)[nH]c2ccccc12` gave an LC retention time of 12.7 min. `S=C(NCc1ccccc1)Nc1cccc2ccccc12` gave an LC retention time of 14.4 min. Compound `Cc1cccc2c(=O)cc(-c3ccccc3)oc12` has an LC retention time of 15.4 min. Work on `COC(=O)Cn1c(C)cc(C)c(N)c1=O` yielded an LC retention time of 7.8 min. `CC(C(=O)c1ccccc1)[n+]1ccccc1` (centres undefined) showed an LC retention time of 8.43 min. In the case of `CC(=O)NC1CCC2C3CC=C4CC(OC(C)=O)CCC4(C)C3CCC12C` (centres undefined), the LC retention time is reported as 16.7 min. For `Nc1cc[n+](Cc2ccccc2)cc1`, the LC retention time was 8.46 min. For `CCC(C)C1(CC)C(=O)NC(=O)NC1=O` (centres undefined), the LC retention time was 9.71 min. In the case of `c1ccc(-c2nc3ccccc3o2)cc1`, the LC retention time is reported as 15.4 min. `O=C(Cc1ccccc1)Nc1ccc(-c2nc(-c3ccccc3)c3cc(NC(=O)Cc4ccccc4)ccc3n2)cc1` gave an LC retention time of 17.8 min. `O=C1C=CC(=O)N1C1CCCCC1` gave an LC retention time of 9.58 min. For `CNc1ccccc1`, the LC retention time was 7.27 min. With `C=CCN1CCC23CCCCC2C1Cc1ccc(O)cc13` (centres undefined) the LC retention time was 9.82 min. In the case of `CC(C)(C)c1ccc2[nH]c3c(c2c1)CCCC3=O`, the LC retention time is reported as 16.5 min. In the case of `CCCCc1ccc(NC=CC(=O)c2ccc(C)cc2)cc1`, the LC retention time is reported as 21.5 min. In the case of `O=C1NCCc2c1[nH]c1ccccc21`, the LC retention time is reported as 10.1 min. `CCCCCCC(N)=O` gave an LC retention time of 9.68 min. Work on `Cc1ccc(C2C3=C(CC(C)(C)CC3=O)NC3=C2C(=O)CC(C)(C)C3)cc1` yielded an LC retention time of 13.2 min. Work on `NC(=O)c1cn(CC(=O)O)c(=O)[nH]c1=O` yielded an LC retention time of 1.6 min. In the case of `Cn1cnnc1-c1ccncc1`, the LC retention time is reported as 6.08 min. `NC(=O)c1cc2ccccc2o1` gave an LC retention time of 9.05 min. `CCN1C(=O)C2C(C)NC3(C(=O)Nc4ccccc43)C2C1=O` (centres undefined) gave an LC retention time of 8.61 min. For `Nc1ccc(C(=O)NN=Cc2cccc3ccccc23)cc1`, the LC retention time was 11.6 min. Compound `COc1ccc(C(=O)C=Cc2ccc(OC)c(COc3cccc(C)c3C)c2)cc1` has an LC retention time of 19.9 min. For `Cn1c(=O)c2ccccc2n(CCN)c1=O`, the LC retention time was 7.65 min. With `C#CCN(CC)CC#C` the LC retention time was 6.73 min. `Cc1ccc(-c2cnc3ccccc3n2)c(C)c1` showed an LC retention time of 17.4 min. Work on `O=C1CC(N2CCN(C(c3ccccc3)c3ccccc3)CC2)C(=O)N1c1ccccc1` (centres undefined) yielded an LC retention time of 11.2 min. In the case of `CN(Cc1ccccc1)C(=O)c1ccco1`, the LC retention time is reported as 11.8 min.
